Assay results reported in patent publication US7528252B2, “Derivatives of triazoly-imidazopyridine useful as ligands of the adenosine A2a receptor and their use as medicaments” (Sigma-Tau Industrie Farmaceutiche Riunite S.p.A., priority 2002, dated 2009).

Columns and labels:
[1] = test system: CD1 male mice; experiment: Effects on spontaneous motor activity in mice; type: in vivo; details: for Horizontal activity / Vertical activity: mean ± s.e.
Description: For this study, type CD1 male mice (n=8) were used. The effects of the products under study and of the reference compounds were evaluated using an apparatus consisting of a Plexiglas cage (40 cm×40 cm) surrounded by a series of photocells which monitor the movements of the animals placed inside, connected a computerised system, through which, the signals are collected and later elaborated.
Tests were carried out, after endoperitoneal administration of the products. 15 minutes after treatment, the treated animals, alternating with the controls, were placed inside the cage so as to record their spontaneous movements over a total period of 45 minutes broken down into two observation intervals (15′-45′ and 45′-60′, with respect to the time after treatment).
To examine the possible effects of the compounds studied on motor activity, the following parameters were considered: horizontal activity, vertical activity: total distance.
Except for CGS 21680 (reference compound, described in EP 0 277 917, Ciba-Geigy) which was dissolved in 0.9% NaCl, the products studied were solubilised in DMSO and then diluted in Cremofor EL and 0.9% NaCl (final concentrations: DMSO 15%, Cremofor EL 15%, NaCl 0.9%.

[2] = test system: mice; experiment: Capacity to antagonise CGS 21680 induced catalepsy; type: in vivo; details: orally 5 mg/Kg and 10 mg/Kg, 30 minutes prior to CGS 21680 (10 μg/5 μl/mouse i.c.v.); scored 30′, 60′, 120′, 180′
Description: 10 CD1 male mice were used per group. For this test, a steel bar, 10 cm long, was placed at a height of 4.5 cm above the support surface. Onto this, were placed the front legs of the animals. The presence of catalepsy was determined by measuring the time (in seconds) the animal remained in the posture placed. Later, this parameter was placed relatively, on a scale of rising values (0 to 5) through which, the degree of catalepsy determined in both control animals and in these subjected to treatment with the substances under test could be proportionately expressed.
For this study, the product ST 1535 was used. Catalepsy was induced in the animals through the intracerebroventricular administration of CGS 21680 (10 μg/5 μl/mouse), 30 minutes prior to testing for the catalepsy score. The test compound was administered orally at a dose of 5 mg/Kg and 10 mg/Kg , 30 minutes prior to treatment with CGS 21680.
The catalepsy score was derived in the manner described following treatment with OGS 21680 after the following times: 30′, 60′ 120′, 180′.

[3] = test system: CD1 mice; experiment: Associated L-DOPA and A2a antagonists on Haloperidol-induced catalepsy; type: in vivo; details: ST 1535 1.25 or 2.5 mg/kg per os; L-DOPA 12.5 mg/kg; benserazide 3.12 mg/kg i.p.; Haloperidol 4 mg/kg i.p.
Description: For this study, product ST 1535 was used.
CD1 mice, divided into different experimental groups (n=10 per group) were used. All animals were subjected to treatment with Haloperidol (4 mg/kg, i.p.) two hours and 30′ prior to the catalepsy test, carried out according to the method described above.
Later, the animals were subjected to different types of treatment according to their original experimental group (see diagram). All catalepsy evaluations were carried out 2 hours and 30 minutes after Haloperidol treatment.
Haloperidol+ST 1535: ST 1535 2.5 mg/kg, per os, 75′ prior to testing;
Haloperidol+benserazide+L-Dopa: Benserazide 3.12 mg/kg i.p., 90′ prior to testing;
L-DOPA:. 12.5 mg/kg, 60′ prior to testing;
Aloperidol+benserazide+L-Dopa+ST 1535: Benserazide 3.12 mg/kg i.p., 90′ prior to testing;
L-DOPA 12.5 mg/kg, 60′ prior to testing;

[4] = biological target: T1, human A2a receptor (Homo sapiens, UniProt P29274); details: ratio of receptor affinity (selectivity)
[5] = biological target: T1, human A2a receptor; experiment: biochemical
[6] = 2.5 mg/kg endoperitoneal, interval 15′-45′ from treatment
[7] = 2.5 mg/kg endoperitoneal, interval 45′-60′ from treatment
[8] = 5 mg/kg endoperitoneal, interval 15′-45′ from treatment
[9] = 5 mg/kg endoperitoneal, interval 45′-60′ from treatment
[10] = 10 mg/kg endoperitoneal, interval 15′-45′ from treatment
[11] = 10 mg/kg endoperitoneal, interval 45′-60′ from treatment
[12] = 20 mg/kg endoperitoneal, interval 15′-45′ from treatment
[13] = 20 mg/kg endoperitoneal, interval 45′-60′ from treatment

T1 sequence (P29274 whole entry): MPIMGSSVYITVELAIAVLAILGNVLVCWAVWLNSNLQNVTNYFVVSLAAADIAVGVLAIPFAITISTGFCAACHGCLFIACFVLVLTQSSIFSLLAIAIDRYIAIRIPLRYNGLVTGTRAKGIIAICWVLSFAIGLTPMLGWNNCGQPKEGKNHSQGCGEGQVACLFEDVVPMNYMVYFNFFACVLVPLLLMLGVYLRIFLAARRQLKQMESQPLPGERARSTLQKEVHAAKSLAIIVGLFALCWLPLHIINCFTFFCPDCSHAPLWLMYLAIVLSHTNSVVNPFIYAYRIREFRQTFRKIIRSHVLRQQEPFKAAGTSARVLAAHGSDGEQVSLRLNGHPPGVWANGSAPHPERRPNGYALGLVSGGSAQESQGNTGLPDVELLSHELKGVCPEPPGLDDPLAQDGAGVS

CCCCc1nc(N)c2nc(-n3nccn3)n(C)c2n1 [ST 1535, 2-butyl-9-methyl-8-(2H-1,2,3-triazol-2-yl)-9H-purine-6-ylamine]
Horizontal activity [1, 6]: 5386 ± 505
Vertical activity [1, 6]: 282 ± 79
Horizontal activity [1, 7]: 1693 ± 266
Vertical activity [1, 7]: 68 ± 21
Horizontal activity [1, 8]: 7549 ± 508
Vertical activity [1, 8]: 249 ± 41
Horizontal activity [1, 9]: 2353 ± 199
Vertical activity [1, 9]: 76 ± 16
Horizontal activity [1, 10]: 7434 ± 526
Vertical activity [1, 10]: 219 ± 64
Horizontal activity [1, 11]: 2784 ± 345
Vertical activity [1, 11]: 71 ± 32
Horizontal activity [1, 12]: 10524 ± 670
Vertical activity [1, 12]: 486 ± 84
Horizontal activity [1, 13]: 3321 ± 363
Vertical activity [1, 13]: 148 ± 36
dose from which a significant increase of the spontaneous motor activity in mice is observed ([1]; endoperitoneal): ≥ 5 mg/kg
effect on CGS 21680-induced catalepsy (FIG. 2) [2]: significantly antagonises the appearance of catalepsy at all the observed times
combination with sub threshold dose of L-DOPA plus benserazide on Haloperidol-induced catalepsy (FIG. 4) [3]: potentiates the anticataleptic activity of treatment with ineffective doses of L-DOPA and benserazide
KiA1/KiA2a [4]: 47
Ki [5]: 2.29 ± 0.58 nM
